Earlier results on 1 compound are cited in US20090298708A1, “2'-DEOXY-2'-FLUORO-BETA-D-ARABINONUCLEOSIDE 5'-TRIPHOSPHATES AND THEIR USE IN ENZYMATIC NUCLEIC ACID SYNTHESIS” (priority 2006, published 2009).

The data set deals with T1, DNA pol-γ (Homo sapiens, UniProt P54098).
T1 sequence (P54098 1-1239): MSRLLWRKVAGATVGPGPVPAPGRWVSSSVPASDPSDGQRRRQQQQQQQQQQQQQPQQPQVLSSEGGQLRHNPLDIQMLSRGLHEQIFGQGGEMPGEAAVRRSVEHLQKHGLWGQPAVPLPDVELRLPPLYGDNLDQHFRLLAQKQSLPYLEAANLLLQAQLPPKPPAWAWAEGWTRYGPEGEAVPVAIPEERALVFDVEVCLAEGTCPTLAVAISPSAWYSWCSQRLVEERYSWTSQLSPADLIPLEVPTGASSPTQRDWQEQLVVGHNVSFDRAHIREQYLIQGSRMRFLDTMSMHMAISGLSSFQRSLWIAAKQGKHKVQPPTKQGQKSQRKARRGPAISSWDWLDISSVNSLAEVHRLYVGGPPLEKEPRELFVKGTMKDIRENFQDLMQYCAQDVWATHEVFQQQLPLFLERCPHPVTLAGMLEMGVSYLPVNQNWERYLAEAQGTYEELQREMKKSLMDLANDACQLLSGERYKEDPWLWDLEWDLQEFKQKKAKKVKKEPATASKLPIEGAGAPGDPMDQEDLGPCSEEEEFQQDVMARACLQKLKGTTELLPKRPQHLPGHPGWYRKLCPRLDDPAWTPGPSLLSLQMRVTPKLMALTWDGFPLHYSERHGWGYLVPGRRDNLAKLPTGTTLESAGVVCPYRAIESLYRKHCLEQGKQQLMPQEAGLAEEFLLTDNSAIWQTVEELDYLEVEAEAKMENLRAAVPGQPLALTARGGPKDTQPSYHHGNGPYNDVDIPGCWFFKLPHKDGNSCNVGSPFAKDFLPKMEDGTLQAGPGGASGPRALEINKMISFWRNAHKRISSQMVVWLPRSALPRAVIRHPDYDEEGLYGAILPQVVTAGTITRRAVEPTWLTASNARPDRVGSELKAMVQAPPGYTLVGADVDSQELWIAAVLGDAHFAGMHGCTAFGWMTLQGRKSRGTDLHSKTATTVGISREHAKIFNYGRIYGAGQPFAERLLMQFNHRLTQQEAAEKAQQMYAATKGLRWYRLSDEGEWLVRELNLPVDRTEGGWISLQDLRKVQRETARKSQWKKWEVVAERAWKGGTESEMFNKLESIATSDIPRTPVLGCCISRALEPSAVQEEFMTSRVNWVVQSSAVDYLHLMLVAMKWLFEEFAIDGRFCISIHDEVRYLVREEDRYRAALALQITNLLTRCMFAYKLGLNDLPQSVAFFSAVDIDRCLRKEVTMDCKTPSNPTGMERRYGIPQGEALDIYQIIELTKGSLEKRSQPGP
Particulars: Lewis W. et al. (1994) Biochemistry, 33, 14620-14624; read-out: inhibition constant (Ki) with DNA pol-γ; cited from earlier work.

A word on the Ki: it is a dissociation constant, usually derived from enzyme kinetics or from competition with a known ligand. For `O=c1[nH]c(=O)n(C2OC(COP(=O)(O)OP(=O)(O)OP(=O)(O)O)C(O)C2F)cc1I` (stereo not shown) [FIAU 5′-TP], the Ki is 40 nM.
